# Test results reported in the supplement of paper PMC11061612.
# Legend:
# [1] = compound: NC1(c2ccc(-c3nc4ccn5c(=O)[nH]nc5c4cc3-c3ccccc3)cc2)CCC1 [MK-2206]; settings: max 10 µM
# In short: (§1)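 After 24 hours at 37°C and 5% CO2 in 1536-well plates holding 7.5 μl of DMEM/F12 or RPMI with 10% FBS, cancer cell lines were dosed for 72 hours, with final DMSO typically 0.2%. Viability came from CellTiter-Glo 2.0 luminescence, scaled between the means of blank wells and DMSO wells. A non-linear mixed effects model fitted a two-parameter logistic curve to each dose response to give the single-agent IC50.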
# [2] = compound: O=c1[nH]cc(F)c(=O)[nH]1 [5-Fluorouracil]; settings: max 20 µM
# In short: as §1
# [3] = compound: C=CCn1c(=O)c2cnc(Nc3ccc(N4CCN(C)CC4)cc3)nc2n1-c1cccc(C(C)(C)O)n1 [AZD1775]; settings: max 3 µM
# In short: as §1
# [4] = compound: COc1cccc2c1C(=O)c1c(O)c3c(c(O)c1C2=O)C[C@@](O)(C(=O)CO)C[C@@H]3O[C@H]1C[C@H](N)[C@H](O)[C@H](C)O1 [Doxorubicin]; settings: max 1 µM
# In short: as §1
# [5] = compound: Cn1cnc2c(F)c(Nc3ccc(Br)cc3Cl)c(C(=O)NOCCO)cc21 [Selumetinib]; settings: max 10 µM
# In short: as §1
# [6] = compound: CC1(C)CCC(CN2CCN(c3ccc(C(=O)NS(=O)(=O)c4ccc(NCC5CCOCC5)c([N+](=O)[O-])c4)c(Oc4cnc5[nH]ccc5c4)c3)CC2)=C(c2ccc(Cl)cc2)C1 [Venetoclax]; settings: max 1 µM
# In short: as §1
# [7] = compound: CC(=O)Nc1cccc(-n2c(=O)n(C3CC3)c(=O)c3c(Nc4ccc(I)cc4F)n(C)c(=O)c(C)c32)c1 [Trametinib]; settings: max 1 µM
# In short: as §1
# [8] = compound: CS(=O)(=O)CCNCc1ccc(-c2ccc3ncnc(Nc4ccc(OCc5cccc(F)c5)c(Cl)c4)c3c2)o1 [Lapatinib]; settings: max 10 µM
# In short: as §1
# [9] = compound: COc1cc(Nc2ncc3c(n2)-c2ccc(Cl)cc2C(c2c(F)cccc2OC)=NC3)ccc1C(=O)O [Alisertib]; settings: max 10 µM
# In short: as §1
# [10] = compound: CCN(CCO)CCCOc1ccc2c(Nc3cc(CC(=O)Nc4cccc(F)c4)[nH]n3)ncnc2c1 [AZD2811]; settings: max 1 µM
# In short: as §1
# [11] = compound: CC(=O)O[C@H]1C(=O)[C@@]2(C)[C@H]([C@H](OC(=O)c3ccccc3)[C@]3(O)C[C@H](OC(=O)[C@H](O)[C@@H](NC(=O)c4ccccc4)c4ccccc4)C(C)=C1C3(C)C)[C@]1(OC(C)=O)CO[C@@H]1C[C@@H]2O [Paclitaxel]; settings: max 3 µM
# In short: as §1
# [12] = compound: CN(CC[C@H](CSC1=CC=CC=C1)NC2=C(C=C(C=C2)S(=O)(=O)NC(=O)C3=CC=C(C=C3)N4CCC(CC4)[C@H](C5=CC=CC=C5C6=CC=C(C=C6)Cl)O)S(=O)(=O)C(F)(F)F)CCO [AZD4320]; settings: max 1 µM
# In short: as §1
# [13] = compound: CC(=O)c1c(C)c2cnc(Nc3ccc(N4CCNCC4)cn3)nc2n(C2CCCC2)c1=O [Palbociclib]; settings: max 10 µM
# In short: as §1
# [14] = compound: C[C@@H](Oc1cc(-c2cnn(C3CCNCC3)c2)cnc1N)c1c(Cl)ccc(F)c1Cl [Crizotinib]; settings: max 10 µM
# In short: as §1
# [15] = compound: Cc1c2c(nn1C)CSCc1cc(n(C)n1)CSc1cc(c3ccccc3c1)OCCCc1c(C(=O)O)n(C)c3c-2c(Cl)ccc13 [AZD5991]; settings: max 1 µM
# In short: as §1
# [16] = compound: COc1cc2ncnc(Nc3ccc(F)c(Cl)c3)c2cc1OCCCN1CCOCC1 [Gefitinib]; settings: max 10 µM
# In short: as §1
# [17] = compound: C[C@@H](Nc1cc(F)cc(F)c1)c1cc(C(=O)N(C)C)cc2c(=O)cc(N3CCOCC3)oc12 [AZD8186]; settings: max 10 µM
# In short: as §1
# [18] = compound: COc1nnc2ccc(N3CCC(c4ccc(OCCN5CCN(C)C(=O)[C@H]5C)cc4)CC3)nn12 [AZD5153]; settings: max 1 µM
# In short: as §1
# [19] = compound: Nc1ccn([C@@H]2O[C@H](CO)[C@@H](O)C2(F)F)c(=O)n1 [Gemcitabine]; settings: max 0.3 µM
# In short: as §1
# [20] = compound: Cc1cc2ncnn2cc1Nc1ncc2c(n1)n(C1CCOCC1)c(=O)n2C [AZD7648]; settings: max 10 µM
# In short: as §1
# [21] = compound: COc1cc([C@@H]2c3cc4c(cc3[C@@H](O[C@@H]3O[C@@H]5CO[C@@H](C)O[C@H]5[C@H](O)[C@H]3O)[C@H]3COC(=O)[C@H]23)OCO4)cc(OC)c1O [Etoposide]; settings: max 10 µM
# In short: as §1
# [22] = compound: C1CN(CCC1(C(=O)N[C@@H](CCO)C2=CC=C(C=C2)Cl)N)C3=NC=NC4=C3C=CN4 [AZD5363]; settings: max 10 µM
# In short: as §1
# [23] = compound: O=C(c1cc(Cc2n[nH]c(=O)c3ccccc23)ccc1F)N1CCN(C(=O)C2CC2)CC1 [Olaparib]; settings: max 10 µM
# In short: as §1
# [24] = compound: O=C(Nc1ccc2[nH]nc(-c3ccncc3)c2c1)[C@@H]1CCN(CC(=O)N2CCN(c3ccc(-c4ncccn4)cc3)CC2)C1; settings: max 5 µM
# In short: as §1
# [25] = compound: COc1cccc(OCCCN)c1-c1cc(Nc2cnc(C#N)cn2)n[nH]1 [Prexasertib]; settings: max 1 µM
# In short: as §1
# [26] = compound: N#Cc1cnc(Nc2cc(NC[C@H]3CNCCO3)c(C(F)(F)F)cn2)cn1 [SRA737]; settings: max 10 µM
# In short: as §1
# [27] = compound: C1CC(C1)(C(=O)[O-])C(=O)[O-].N.N.[Pt+2] [Carboplatin]; settings: max 10 µM
# In short: as §1
# [28] = compound: CC(C)n1c(=O)n(C)c2cnc3cc(F)c(-c4ccc(OCCCN5CCCCC5)nc4)cc3c21 [AZD1390]; settings: max 0.3 µM
# In short: as §1
# [29] = compound: CN(C)CCCOc1ccc(-c2ccc3ncc4c(c3c2)n(C2CCOCC2)c(=O)n4C)cn1 [AZD0156]; settings: max 3 µM
# In short: as §1
# [30] = compound: CC1=C(C(=CC=C1)Cl)NC(=O)C2=CN=C(S2)NC3=CC(=NC(=N3)C)N4CCN(CC4)CCO [Dasatinib]; settings: max 2 µM
# In short: as §1
# [31] = compound: CCc1c2c(nc3ccc(O)cc13)-c1cc3c(c(=O)n1C2)COC(=O)[C@]3(O)CC [SN-38]; settings: max 0.3 µM
# In short: as §1
# [32] = compound: Cc1nc(-c2cn3c(n2)-c2ccc(-c4cnn(C(C)(C)C(N)=O)c4)cc2OCC3)n(C(C)C)n1 [Taselisib]; settings: max 10 µM
# In short: as §1
# [33] = compound: CC1=CN2[C@@H](C1)C=NC3=CC(=C(C=C3C2=O)OC)OCCCCCOC4=C(C=C5C(=C4)N=C[C@@H]6CC(=CN6C5=O)C)OC [SG3199]; settings: max 0.001 µM
# In short: as §1
# [34] = compound: C[C@@H](c1ccc2nccn2c1)n1nnc2ncc(-c3cnn(C)c3)nc21 [Savolitinib]; settings: max 1 µM
# In short: as §1
# [35] = compound: C[C@@H]1COCCN1C2=NC(=NC(=C2)C3(CC3)[S@](=N)(=O)C)C4=C5C=CNC5=NC=C4 [AZD6738]; settings: max 10 µM
# In short: as §1
Cell Line,"IC50, cell viability 72 h [1] [nM]","IC50, cell viability 72 h [2] [nM]","IC50, cell viability 72 h [3] [nM]","IC50, cell viability 72 h [4] [nM]","IC50, cell viability 72 h [5] [nM]","IC50, cell viability 72 h [6] [nM]","IC50, cell viability 72 h [7] [nM]","IC50, cell viability 72 h [8] [nM]","IC50, cell viability 72 h [9] [nM]","IC50, cell viability 72 h [10] [nM]","IC50, cell viability 72 h [11] [nM]","IC50, cell viability 72 h [12] [nM]","IC50, cell viability 72 h [13] [nM]","IC50, cell viability 72 h [14] [nM]","IC50, cell viability 72 h [15] [nM]","IC50, cell viability 72 h [16] [nM]","IC50, cell viability 72 h [17] [nM]","IC50, cell viability 72 h [18] [nM]","IC50, cell viability 72 h [19] [nM]","IC50, cell viability 72 h [20] [nM]","IC50, cell viability 72 h [21] [nM]","IC50, cell viability 72 h [22] [nM]","IC50, cell viability 72 h [23] [nM]","IC50, cell viability 72 h [24] [nM]","IC50, cell viability 72 h [25] [nM]","IC50, cell viability 72 h [26] [nM]","IC50, cell viability 72 h [27] [nM]","IC50, cell viability 72 h [28] [nM]","IC50, cell viability 72 h [29] [nM]","IC50, cell viability 72 h [30] [nM]","IC50, cell viability 72 h [31] [nM]","IC50, cell viability 72 h [32] [nM]","IC50, cell viability 72 h [33] [nM]","IC50, cell viability 72 h [34] [nM]","IC50, cell viability 72 h [35] [nM]"
VMRC-RCZ (Kidney Carcinoma),> 10000,> 20000,> 3000,> 1000,> 10000,> 1000,> 1000,> 10000,> 10000,> 1000,> 3000,> 1000,> 10000,> 10000,> 1000,> 10000,> 10000,> 1000,> 300,> 10000,> 10000,> 10000,> 10000,> 5000,> 1000,> 10000,> 10000,> 300,> 3000,> 2000,> 300,> 10000,> 1,> 1000,> 10000
NCI-H526 (Small Cell Lung Carcinoma),> 10000,12800,642,107,> 10000,246,> 1000,> 10000,9420,> 1000,9.08,43.4,> 10000,7940,> 1000,> 10000,> 10000,80.1,251,> 10000,713,> 10000,> 10000,> 5000,83.8,> 10000,> 10000,> 300,> 3000,> 2000,2.57,> 10000,> 1,> 1000,10000
